The text below walks through data of EP4349409A1, “COMPOUNDS FOR THE MANAGEMENT OF CELL STEMNESS AND INVASION IN CANCER AND RELATED DISEASES” (Instituto Biomar S.A., priority 2022, dated 2024).

The structures appear in SMILES notation. Where two headings read alike, the source gives them in different places.

The test system of one assay is T98G. Briefly: MTT-based cytotoxicity assay, T98G. The format is cell-based. As to conditions: Homo sapiens, 72 h. The method, then: (§1) A dose-response analysis of BMT9 (concentrations ranging from 4.5 µM-18 µM), BCNU (from 150 µM-500 µM) and TMZ (350 µM-700 µM) was performed in two conventional glioblastoma cell lines (T98G, U373) and the GNS cell line G144 by MTT-based cytotoxicity assays (Figure 5A-D). Cells were seeded on p96-well plates and treated with the different compounds for 72 h. Then, the MTT reagent (3-(4,5-Dimethyl-2-thiazolyl)-2,5-diphenyl-2H-tetrazolium bromide diluted in PBS to a concentration of 1mg/ml), was added to each well to a final concentration of 0.33mg/ml, and incubated for 3 h at 37°C. After that, the media was removed, and formazan crystals were solubilized with DMSO. Absorbance was measured at 560 nm using a "Synergy HT" plate reader (Biotek). In the graphs, the Y axis represents the percentage of cell viability relative to non-treated cells. The IC50, when reached are marked by a rectangle. DMSO treatment had no effect on cell viability.
Background: Tetrazolium dyes change colour on reduction, which living cells bring about.

The test system of another assay is U373. Briefly: MTT-based cytotoxicity assay, U373. The format is cell-based. The following applies: Homo sapiens, U373 MG, 72 h. The method, then:
as §1

For assay [1], the system named is G144. Briefly: MTT-based cytotoxicity assay, G144. Format: cell-based, human. The following applies: Homo sapiens, 72 h, G144, MTT. The method, then:
as §1
Previous studies have reported that the molecular signature of the GNSC G144 cell line corresponds to a 'proneural' subtype of GB with NSC features (Pollard et al., 2009; Danovi et al., 2013). Thus, to test BMT9 specificity we compared cellular viability when treating CD133-positive cells (either GNSCs or normal human fetal neural stem cells-NSC) versus CD133-negative human embryonic fibroblast (HEFs) (Figure 8A). MTT-based cytotoxicity assay (Figure 7B-D) were performed as previously described.
While the first line therapy of gliomas has proven its effectiveness and improved clinical outcomes, acquired chemoresistance to alkylating agents has been identified as a major cause of treatment failure (Sarkaria et al., 2008). In a murine model of GB, long-term treatment with subtoxic TMZ doses enriched the side population of cancer stem cells, increasing the tumor aggressiveness (Bleau et al., 2009). Thus, we generated TMZ-resistant G144-clones that were selected upon treatment with TMZ either at 500 µM or 700 µM for several months (R500 and R700, respectively). The obtained clones maintained CD133 stem marker expression (Figure 9A). We then analyzed BMT9 dose-dependent effect on cell viability, by MTT assay, comparing the resistant clones to parental cells.

The subject of assay [2] is G144. As to conditions: called 'known'; cell line not stated, used in G144 parental and resistant clone experiment; cited from earlier work.
A further assay relates to GNSCs. Briefly: MTT assay of BMT9 analogues against GNSCs. The format is cell-based. The following applies: 48 and 72 h. The method, then: as §1
The cytotoxicity of two BMT9 analogues synthetized by Instituto Biomar S.A. was evaluated by MTT assays.

In a further assay the test system is P1-TP73 promoter. Briefly: P1-p73-Fluc-DsRed reporter validation in HCT116 p53-/- cells. The format is cell-based, human. The following applies: HCT116 p53-/- cells transfected with P1-p73-FlucDsRed vector, cultured with Doxo, 24 and 48 hours. The source says: A bimodal reporter vector, named P1-p73-Fluc-DsRed2, was engineered based on the previously published lentiviral system LV-CMV-Fluc-dsRed2 (Shah et al., 2008). […] Using this backbone, the CMV promoter was swapped for a 930 bp fragment of the human P1-TP73 promoter contained in the P1-p73-Luc-pGL3-Basic vector (-859 to +71 of TP73 gene) (Seelan et al., 2002) (Figure 1A'). To validate the generated system, we used the HCT116 p53-/- cells in which endogenous TAp73 expression can be induced by the genotoxic drug doxorubicin (Doxo), at RNA and protein levels (Figure 1B and Vossio et al., 2002, respectively). Next, we tested whether the engineered reporter vector could monitor these changes in endogenous TAp73 RNA levels. For this purpose, HCT116 p53-/- cells were either non-transfected (NT) or transfected with P1-p73-FlucDsRed vector and cultured with Doxo (black square fill pattern bar) or without treatment (grey bar) for the indicated time points (Figure 1C), at which the fluorescence levels (DsRed, Y axis) were measured by fluorimetry.
As depicted in Figure 1C, we detected an increase in endogenous P1-promoter activity after 24 and 48 hours of culture […].

A word on the IC50: it is the concentration at which inhibition is half-maximal. As for `O=NN(CCCl)C(=O)NCCCl` [BCNU, carmustine, reference compound], the IC50 was 500 µM with T98G, 250 µM with U373, 250 µM in the assay on G144 [1] and 500 µM with G144 [2].

Turning to `C=C1C2CCC(C)(C3COc4c(C=O)c5c(c(OC)c4C3O)C(=O)OC5O)C1CCC2(C)C` (stereo not shown) [BMT9.2], the IC50 with GNSCs is at most 4.5 µM. The same measure, in the same setting: as for `C=C1C2CCC(C)(C3COc4c(C=O)c5c(c(OC)c4C3O)C(=O)OC5OC(C)=O)C1CCC2(C)C` (stereo not shown) [BMT9.5], the figure is at most 4.5 µM. Consider `COc1cccc2c1C(=O)c1c(O)c3c(c(O)c1C2=O)C[C@@](O)(C(=O)CO)C[C@@H]3O[C@H]1C[C@H](N)[C@H](O)[C@H](C)O1` [Doxo, doxorubicin], for which the “reporter activity (DsRed fluorescence)” value in the assay on P1-TP73 promoter is recorded as “increase in reporter activity that was sustained after 48 hours”.
